SMILES strings stand for the structures.

The subject of one data set is PBMC. Nature of the data set: Cytotoxicity against human PBMC assessed as inhibition of cell viability after 72 hrs by MTT assay. Type of data set: cell-based.
Data set [1] is described as follows: Cytotoxicity against human PBMC assessed as inhibition of cell viability at 0.25 mg/ml after 72 hrs by MTT assay. Format: cell-based. As to conditions: PBMC (peripheral blood mononuclear cells), read-out: INH.
Data set [2] deals with L1210. Nature of the data set: Antitumor activity against mouse L1210 cells assessed as inhibition of [3H]thymidine incorporation at 0.25 mg/ml after 72 hrs relative to control. Type of data set: functional.
In data set [3] the test system is L1210. Nature of the data set: Cytotoxicity against mouse L1210 cells assessed as inhibition of cell viability after 72 hrs by MTT assay. As to conditions: L1210, 72 h. Type of data set: functional, cell-based.
Data set [4] deals with L1210. As to the kind of experiment: Ratio of IC50 for mouse L1210 cells by MTT assay to EC50 for mouse L1210 cells by [3H]thymidine incorporation assay. Format: functional.
The test system of data set [5] is L1210. As to the kind of experiment: Cytotoxicity against mouse L1210 cells assessed as inhibition of cell viability after 72 hrs by MTT assay relative to control. Type of data set: functional. Also on record: concentration or dose not given beside the values. As to conditions: values are per cent of control.
The subject of data set [6] is L1210. As to the kind of experiment: Antitumor activity against mouse L1210 cells assessed as inhibition of [3H]thymidine incorporation after 72 hrs. Format: functional, cell-based.
A short description of data set [7]: Cytotoxicity against human PBMC assessed as inhibition of cell viability at 0.5 mg/ml after 72 hrs by MTT assay. Type of data set: cell-based. As to conditions: PBMC (peripheral blood mononuclear cells), read-out: INH.
Data set [8] relates to L1210. As to the kind of experiment: Antitumor activity against mouse L1210 cells assessed as inhibition of [3H]thymidine incorporation at 0.5 mg/ml after 72 hrs relative to control. As to conditions: values are per cent of control. Type of data set: functional.
The nature of data set [9]: Cytotoxicity against human PBMC assessed as inhibition of cell viability at 0.21 mg/ml after 72 hrs by MTT assay. Format: cell-based. As to conditions: PBMC (peripheral blood mononuclear cells), read-out: INH.
Data set [10] deals with L1210. As to the kind of experiment: Antitumor activity against mouse L1210 cells assessed as inhibition of [3H]thymidine incorporation at 0.215 mg/ml after 72 hrs relative to control. Format: functional.
Data set [11] has as its system L1210. As to the kind of experiment: Cytotoxicity against mouse L1210 cells assessed as inhibition of cell viability at 0.5 mg/ml after 72 hrs by MTT assay. As to conditions: L1210, 72 h. Type of data set: functional.

As to `CC(=O)N[C@H]1[C@@H](OCc2ccccc2)O[C@H](CO)[C@@H](O)[C@@H]1O[C@H](C)C(=O)N[C@@H](C(=O)N[C@H](CCC(=O)O)C(N)=O)C(C)C`, the half-inhibitory concentration (IC50) in the data set with PBMC was determined as 244 µM; in the data set with L1210 [3] it was 266 µM. Besides, in data set [1], the cytotoxicity at 72 h, 0.25 mg/ml is under 50%. Besides, in the data set with L1210 [2], the inhibition at 250 µg/mL was determined as 0.83%. The “Ratio IC50/EC50” value with L1210 [4] worked out at 47.9. For the same compound, the “viability, % of control” value in the data set with L1210 [5] turned out to be 39.72%. The concentration giving a half-maximal response (EC50) in the data set on L1210 [6] is 228 µM.

On to `CC(=O)N[C@H]1[C@@H](OCc2ccccc2)O[C@H](CO)[C@@H](O)[C@@H]1OCC(=O)N[C@H](CO)C(=O)N[C@H](CCC(=O)O)C(N)=O`, for which, in data set [7], the cytotoxicity at 72 h, 0.5 mg/ml was under 50%. Besides, the values for the 50% inhibitory concentration (IC50) with PBMC and in the data set on L1210 [3] were 858 µM and 314 µM, respectively. Also, the “Ratio IC50/EC50” value with L1210 [4] is on record as 19.3. Further, the growth, % of control at 500 µg/mL in the data set with L1210 [8] worked out at 0.76%. Besides, the “viability, % of control” value in the data set with L1210 [5] is given as 14.68%. Also, in the data set on L1210 [6], the EC50 turned out to be 290 µM.

For the compound `CC(=O)N[C@H]1[C@@H](OCc2ccccc2)O[C@H](CO)[C@@H](O)[C@@H]1OCC(=O)N[C@@H](C(=O)N[C@H](CCC(=O)O)C(N)=O)C(C)C`, in data set [7], the cytotoxicity at 72 h, 0.5 mg/ml was under 50%. Further, the IC50 in the data set with PBMC is 361 µM; with L1210 [3], 170 µM. Also, the “Ratio IC50/EC50” value with L1210 [4] was determined as 23.7. For the same compound, in data set [9], the cytotoxicity at 72 h, 0.21 mg/ml is under 50%. The inhibition at 215 µg/mL in the data set with L1210 [10] is 1.12%. For the same compound, the “viability, % of control” value in the data set with L1210 [5] is on record as 26.6%. Further, in the data set on L1210 [6], the EC50 was determined as 193 µM.

Consider `CC[C@@H](NC(=O)CO[C@H]1[C@H](O)[C@@H](CO)O[C@H](OCc2ccccc2)[C@@H]1NC(C)=O)C(=O)N[C@H](CCC(=O)NCCNc1ncnc2c1ncn2[C@@H]1O[C@H](CO)[C@@H](O)[C@H]1O)C(N)=O`, for which the concentration for half-maximal inhibition (IC50) with PBMC came to 466 µM; in the data set on L1210 [3] it was 571 µM. Moreover, in the data set with L1210 [4], the “Ratio IC50/EC50” value was found to be 19.6. In addition, the inhibition at 500 µg/mL in the data set with L1210 [11] was under 50%. For the same compound, the growth, % of control at 500 µg/mL in the data set with L1210 [8] amounted to 2.73%. Also, the “viability, % of control” value with L1210 [5] worked out at 53.6%. Further, the concentration giving a half-maximal response (EC50) with L1210 [6] turned out to be 506 µM.

As for `CC(=O)N[C@H]1[C@@H](OCc2ccccc2)O[C@H](CO)[C@@H](O)[C@@H]1OCC(=O)N1CCC[C@@H]1C(=O)N[C@H](CCC(=O)NCCNc1ncnc2c1ncn2[C@@H]1O[C@H](CO)[C@@H](O)[C@H]1O)C(N)=O`, the values for the half-inhibitory concentration (IC50) in the data set on PBMC and with L1210 [3] were 280 µM and 562 µM, respectively. In addition, in the data set with L1210 [4], the “Ratio IC50/EC50” value is on record as 8.7. In the data set on L1210 [11], the inhibition at 500 µg/mL was under 50%. Moreover, the growth, % of control at 500 µg/mL in the data set on L1210 [8] is 6.1%. For the same compound, the “viability, % of control” value in the data set on L1210 [5] turned out to be 52.99%. Besides, the EC50 in the data set on L1210 [6] turned out to be 511 µM.

For the compound `CC(=O)N[C@H]1[C@@H](OCc2ccccc2)O[C@H](CO)[C@@H](O)[C@@H]1OCC(=O)N[C@@H](C(=O)N[C@H](CCC(=O)NCCNc1ncnc2c1ncn2[C@@H]1O[C@H](CO)[C@@H](O)[C@H]1O)C(N)=O)C(C)C`, in [7], the cytotoxicity at 72 h, 0.5 mg/ml is under 50%. In addition, the values for the half-maximal inhibitory concentration (IC50) in the data set on PBMC and with L1210 [3] were 561 µM and 285 µM, respectively. Also, the “Ratio IC50/EC50” value in the data set with L1210 [4] is listed as 2.6. The growth, % of control at 500 µg/mL in the data set with L1210 [8] was 12.3%. In the data set on L1210 [5], the “viability, % of control” value was determined as 31.65%. For the same compound, in the data set with L1210 [6], the 50% effective concentration (EC50) turned out to be 512 µM.

As to `CC(=O)N[C@H]1[C@@H](OCc2ccccc2)O[C@H](CO)[C@@H](O)[C@@H]1O[C@H](C)C(=O)N[C@H](C(=O)N[C@H](CCC(=O)NCCNc1ncnc2c1ncn2[C@@H]1O[C@H](CO)[C@@H](O)[C@H]1O)C(N)=O)C(C)C`, the cytotoxicity at 72 h, 0.5 mg/ml in data set [7] was under 50%. The concentration for half-maximal inhibition (IC50) with PBMC and in the data set on L1210 [3] was 555 µM each time. Also, the “Ratio IC50/EC50” value in the data set on L1210 [4] turned out to be 1.9. In addition, the inhibition at 500 µg/mL with L1210 [11] is under 50%. In addition, the growth, % of control at 500 µg/mL in the data set with L1210 [8] is 31.1%. Moreover, the “viability, % of control” value with L1210 [5] came out at 59.37%. Besides, in the data set on L1210 [6], the EC50 stood at 292 µM.

On to `CC(=O)N[C@H]1[C@@H](OCc2ccccc2)O[C@H](CO)[C@@H](O)[C@@H]1OCC(=O)N[C@@H](C)C(=O)N[C@H](CCC(=O)NCCCCCC(=O)Nc1ncnc2c1ncn2[C@@H]1O[C@H](CO)[C@@H](O)[C@H]1O)C(N)=O`, for which the cytotoxicity at 72 h, 0.5 mg/ml in [7] was under 50%. Also, the IC50 in the data set with PBMC and with L1210 [3] was 537 µM each time. For the same compound, the “Ratio IC50/EC50” value in the data set with L1210 [4] is given as 0.4. Further, in the data set on L1210 [8], the growth, % of control at 500 µg/mL turned out to be 178%. In addition, in the data set with L1210 [5], the “viability, % of control” value is reported as 70.64%. The 50% effective concentration (EC50) in the data set on L1210 [6] is 537 µM.

`CC(=O)N[C@H]1[C@@H](OCc2ccccc2)O[C@H](CO)[C@@H](O)[C@@H]1O[C@H](C)C(=O)N[C@@H](C)C(=O)N[C@H](CCC(=O)NCCCCCC(=O)Nc1ncnc2c1ncn2[C@@H]1O[C@H](CO)[C@@H](O)[C@H]1O)C(N)=O`: in data set [7], the cytotoxicity at 72 h, 0.5 mg/ml was under 50%. The IC50 in the data set with PBMC and in the data set with L1210 [3] was 529 µM each time. Also, in the data set with L1210 [4], the “Ratio IC50/EC50” value came to 0.3. Besides, the growth, % of control at 500 µg/mL in the data set with L1210 [8] is 192%. Also, the “viability, % of control” value in the data set with L1210 [5] is recorded as 65.58%. In addition, the concentration giving a half-maximal response (EC50) in the data set with L1210 [6] was determined as 529 µM.

Turning to `CC(=O)N[C@@H]1[C@@H](O[C@H](C)C(=O)N[C@H](C)C(=O)N[C@H](CCC(=O)O)C(N)=O)[C@H](O)[C@@H](CO)O[C@@H]1O`, in data set [7], the cytotoxicity at 72 h, 0.5 mg/ml was under 50%. Moreover, the IC50 in the data set with PBMC and in the data set with L1210 [3] was 1010 µM each time. The “Ratio IC50/EC50” value with L1210 [4] amounted to 0.4. In addition, in the data set with L1210 [8], the growth, % of control at 500 µg/mL is 146%. Further, in the data set with L1210 [5], the “viability, % of control” value is on record as 64.93%. In addition, the EC50 in the data set on L1210 [6] worked out at 1010 µM.

Take `Nc1ncnc2c1ncn2[C@@H]1O[C@H](CO)[C@@H](O)[C@H]1O` [ADENOSINE]: the cytotoxicity at 72 h, 0.5 mg/ml in data set [7] is under 50%. Also, the figures for the IC50 with PBMC and with L1210 [3] were 1870 µM and 991 µM, respectively. In addition, the “Ratio IC50/EC50” value with L1210 [4] turned out to be 0.2. For the same compound, the growth, % of control at 500 µg/mL in the data set with L1210 [8] amounted to 132%. In addition, in the data set on L1210 [5], the “viability, % of control” value turned out to be 32.79%. Moreover, the EC50 in the data set on L1210 [6] came out at 1870 µM.

The values are drawn from ChEMBL document CHEMBL3351506, “Synthesis and antiproliferative activity of conjugates of adenosine with muramyl dipeptide and nor-muramyl dipeptide derivatives” (Bioorg Med Chem Lett, 2014).
